In US10286022B2, “Medicinal composition of extract of seed of emblica officinalis and method of preparing the same” (priority 2013, dated 2019):

Key:
[1] = test system: Triton WR 1339 induced dyslipidemia in Albino rats (Sprague Dawley strain); assay: Screening of hypolipidemic activity, Triton WR 1339 induced dyslipidemia model (Example 18); format: in vivo, rat
Procedure: (§1) Twenty four male Albino rats (Sprague Dawley strain) weighing approximate 250-300 gm were selected for the study. The animals were kept in the animal house maintained at temp 24±2° C., 65% relative humidity and 12 hr light/dark cycle. The rats were acclimatized for two weeks and during this period they had access to standard pellet diet and water ad libitum. After two weeks of acclimatization, all the rats were fasted overnight before injecting Triton WR 1339 (Tyloxapol) and administration of test extracts/standard. The animals were divided into four groups Following treatment was given to overnight fasted rats: • Group I: Normal control (vehicle only). • Group II: Triton WR 1339 (300 mg/kg, intraperitoneal). • Group III: Triton WR 1339 (300 mg/kg, intraperitoneal) followed by amla seed extract prepare as per example 1 (10 mg/kg, per oral). • Group IV: Triton WR 1339 (300 mg/kg, intraperitoneal) followed by Atorvastatin (10 mg/kg, per oral).
(§2) The animals were deprived of food for next 24 hours but had free access to water ad libitum. After 24 hour of drug treatment 2 ml blood samples were collected from the retro orbital plexus. The blood was allowed to clot and then centrifuged at 3000 rpm for 10 min and the serum was carefully drawn and collected into separate tubes. The serum was analyzed for total cholesterol, triglycerides, high density lipoproteins (HDL), low density lipoproteins (LDL) and very low density lipoproteins (VLDL) levels using auto-analyzer.

[2] = test system: Triton WR 1339 induced dyslipidemia in Albino rats (Sprague Dawley strain); assay: Single dosage study compared with other amla extracts, Triton WR 1339 model (Example 21); format: in vivo, rat
Procedure: as §1, with “Forty eight male” for “Twenty four male”, “into eight groups.” for “into four groups”, “extract prepared” for “extract prepare”, “1 (2.5” for “1 (10”, “by amla extract prepared as per example 3 (2.5 mg/kg, per oral). • Group V: Triton WR 1339 (300 mg/kg, intraperitoneal) followed by amla extract prepared as per example 4 (2.5 mg/kg, per oral). • Group VI: Triton WR 1339 (300 mg/kg, intraperitoneal) followed by amla extract prepared as per example 5 (2.5 mg/kg, per oral). • Group VII: Triton WR 1339 (300 mg/kg, intraperitoneal) followed by amla extract prepared as per example 6 (2.5 mg/kg, per oral). • Group VIII: Triton WR 1339 (300 mg/kg, intraperitoneal) followed by atorvastatin” for “by Atorvastatin”
as §2

cholesterol fed rabbits = assay: Hypolipidemic activity in cholesterol fed rabbits (Example 23); format: in vivo, rabbit
Procedure: The amla seed extract as prepared in example 1 was evaluated for hypolipidemic activity in experimental rabbits. Male NZ white rabbits weighing 1.5-2.0 kg were used for the experiment. They were housed in a temperature-controlled room (25±2° C.) in clean stainless steel cages with ‘12 h light and 12 h dark’ cycles and fed with normal pellet diet and water ad libitum.
After the acclimatization period of 10 days, blood samples were collected from marginal ear vein of all the rabbits. The blood was allowed to clot and then centrifuged at 3000 rpm for 10 min and the serum was carefully drawn and collected into separate tubes. The serum was analyzed for total cholesterol, triglycerides, high density lipoproteins (HDL), low density lipoproteins (LDL) and very low density lipoproteins (VLDL) levels using auto-analyzer.
After taking baseline lipid profile the animals were divided into four groups having six animals in each group. Following treatment was given to the animals for the three months:
Blood samples were collected from all the rabbits after 3 months of treatment and serum was analyzed for lipid profile. After blood collection the animals were sacrificed after injecting pentobarbitone and aorta was dissected out, washed with saline and preserved in 10% formalin for histopathology. The sections were cut using microtome and stained with heamatoxylin & eosin dye and mounted on glass slides. The slides were observed under microscope and aortic intima media thickness (IMT) was measured by histomorphometry.

[3] = 24 h after Triton i.p. + 10 mg/kg p.o.
[4] = after 3 months cholesterol 100 mg/kg + 10 mg/kg

SMILES: CC(C)c1c(C(=O)Nc2ccccc2)c(-c2ccccc2)c(-c2ccc(F)cc2)n1CC[C@@H](O)C[C@@H](O)CC(=O)O [Atorvastatin]
- effect on cholesterol and triglyceride level ([1]; 10 mg/kg p.o.): effective in lowering the cholesterol as well as triglyceride level
- HDL After [1, 3]: 32.37 mg/dL
- LDL After [1, 3]: 77.61 mg/dL
- TC After [1, 3]: 131.9 mg/dL
- TG After [1, 3]: 109.67 mg/dL
- VLDL After [1, 3]: 21.93 mg/dL
- HDL Before ([1]; baseline, 10 mg/kg p.o. group): 29.13 mg/dL
- LDL Before ([1]; baseline, 10 mg/kg p.o. group): 62.43 mg/dL
- TC Before ([1]; baseline, 10 mg/kg p.o. group): 100.4 mg/dL
- TG Before ([1]; baseline, 10 mg/kg p.o. group): 44.26 mg/dL
- VLDL Before ([1]; baseline, 10 mg/kg p.o. group): 8.85 mg/dL
- HDL After [2, 3]: 36.66 mg/dL
- LDL After [2, 3]: 43.67 mg/dL
- TC After [2, 3]: 122.54 mg/dL
- TG After [2, 3]: 211.06 mg/dL
- VLDL After [2, 3]: 42.21 mg/dL
- HDL Before ([2]; baseline, 10 mg/kg p.o. group): 39.51 mg/dL
- LDL Before ([2]; baseline, 10 mg/kg p.o. group): 51.00 mg/dL
- TC Before ([2]; baseline, 10 mg/kg p.o. group): 99.83 mg/dL
- TG Before ([2]; baseline, 10 mg/kg p.o. group): 46.59 mg/dL
- VLDL Before ([2]; baseline, 10 mg/kg p.o. group): 9.31 mg/dL
- effect on cholesterol and triglyceride level ([2]; extracts 2.5 mg/kg, atorvastatin 10 mg/kg p.o.): less effective when compared with the amla seed extract
- effect on total cholesterol and triglyceride level (cholesterol fed rabbits; 10 mg/kg, 3 months, compared to untreated control group): decreased the total cholesterol and triglyceride level significantly
- HDL After (cholesterol fed rabbits; [4]): 20.37 mg/dL
- LDL After (cholesterol fed rabbits; [4]): 82.8 mg/dL
- TC After (cholesterol fed rabbits; [4]): 118.9 mg/dL
- TG After (cholesterol fed rabbits; [4]): 78.67 mg/dL
- VLDL After (cholesterol fed rabbits; [4]): 15.73 mg/dL
- Aortic intima media thickness (cholesterol fed rabbits; after 3 months cholesterol 100 mg/kg + 10 mg/kg, histomorphometry): 112.36 μm
- HDL Before (cholesterol fed rabbits; baseline, 10 mg/kg group): 14.15 mg/dL
- LDL Before (cholesterol fed rabbits; baseline, 10 mg/kg group): 27.88 mg/dL
- TC Before (cholesterol fed rabbits; baseline, 10 mg/kg group): 53.69 mg/dL
- TG Before (cholesterol fed rabbits; baseline, 10 mg/kg group): 58.28 mg/dL
- VLDL Before (cholesterol fed rabbits; baseline, 10 mg/kg group): 11.66 mg/dL
